From ChEMBL document CHEMBL2202962, “The discovery of a novel series of glucokinase activators based on a pyrazolopyrimidine scaffold” (Bioorg Med Chem Lett, 2012)
pEC50, pIC50: −log10 of the molar value. In brackets after ≈: the same amount, converted by molar mass.

Assays:
Hexokinase-4 = target: T1, Hexokinase-4 (Homo sapiens, UniProt P35557); assay: Activation of human glucokinase
T1 sequence (P35557 whole entry): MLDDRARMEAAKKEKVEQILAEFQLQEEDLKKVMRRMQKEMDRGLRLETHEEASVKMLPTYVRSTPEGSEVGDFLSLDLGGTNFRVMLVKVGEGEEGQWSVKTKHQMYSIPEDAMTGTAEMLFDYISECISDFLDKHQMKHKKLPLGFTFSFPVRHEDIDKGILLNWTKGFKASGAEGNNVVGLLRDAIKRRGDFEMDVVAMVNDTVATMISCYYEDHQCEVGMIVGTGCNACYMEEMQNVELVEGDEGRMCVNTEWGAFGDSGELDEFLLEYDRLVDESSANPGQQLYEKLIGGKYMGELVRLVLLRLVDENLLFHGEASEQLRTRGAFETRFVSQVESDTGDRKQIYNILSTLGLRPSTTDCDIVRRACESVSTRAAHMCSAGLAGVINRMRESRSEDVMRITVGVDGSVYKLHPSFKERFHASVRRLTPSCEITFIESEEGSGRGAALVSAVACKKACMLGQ

[1] = Octanol-water partition coefficient, log D of the compound by HPLC analysis
Liver microsomes = assay: Drug metabolism in human liver microsomes assessed as glutathione adduct formation relative to clozapine; format: ADME, Microsome
[2] = Clearance in rat; format: ADME, organism-based; conditions: in vivo
[3] = Oral bioavailability in rat; format: ADME, organism-based; conditions: in vivo
[4] = Volume of distribution at steady state in rat; format: ADME, organism-based; conditions: in vivo, read-out: Vdss
[5] = target: Voltage-gated inwardly rectifying potassium channel KCNH2 (Homo sapiens, UniProt Q12809)
Chain of Voltage-gated inwardly rectifying potassium channel KCNH2 (Q12809 whole entry): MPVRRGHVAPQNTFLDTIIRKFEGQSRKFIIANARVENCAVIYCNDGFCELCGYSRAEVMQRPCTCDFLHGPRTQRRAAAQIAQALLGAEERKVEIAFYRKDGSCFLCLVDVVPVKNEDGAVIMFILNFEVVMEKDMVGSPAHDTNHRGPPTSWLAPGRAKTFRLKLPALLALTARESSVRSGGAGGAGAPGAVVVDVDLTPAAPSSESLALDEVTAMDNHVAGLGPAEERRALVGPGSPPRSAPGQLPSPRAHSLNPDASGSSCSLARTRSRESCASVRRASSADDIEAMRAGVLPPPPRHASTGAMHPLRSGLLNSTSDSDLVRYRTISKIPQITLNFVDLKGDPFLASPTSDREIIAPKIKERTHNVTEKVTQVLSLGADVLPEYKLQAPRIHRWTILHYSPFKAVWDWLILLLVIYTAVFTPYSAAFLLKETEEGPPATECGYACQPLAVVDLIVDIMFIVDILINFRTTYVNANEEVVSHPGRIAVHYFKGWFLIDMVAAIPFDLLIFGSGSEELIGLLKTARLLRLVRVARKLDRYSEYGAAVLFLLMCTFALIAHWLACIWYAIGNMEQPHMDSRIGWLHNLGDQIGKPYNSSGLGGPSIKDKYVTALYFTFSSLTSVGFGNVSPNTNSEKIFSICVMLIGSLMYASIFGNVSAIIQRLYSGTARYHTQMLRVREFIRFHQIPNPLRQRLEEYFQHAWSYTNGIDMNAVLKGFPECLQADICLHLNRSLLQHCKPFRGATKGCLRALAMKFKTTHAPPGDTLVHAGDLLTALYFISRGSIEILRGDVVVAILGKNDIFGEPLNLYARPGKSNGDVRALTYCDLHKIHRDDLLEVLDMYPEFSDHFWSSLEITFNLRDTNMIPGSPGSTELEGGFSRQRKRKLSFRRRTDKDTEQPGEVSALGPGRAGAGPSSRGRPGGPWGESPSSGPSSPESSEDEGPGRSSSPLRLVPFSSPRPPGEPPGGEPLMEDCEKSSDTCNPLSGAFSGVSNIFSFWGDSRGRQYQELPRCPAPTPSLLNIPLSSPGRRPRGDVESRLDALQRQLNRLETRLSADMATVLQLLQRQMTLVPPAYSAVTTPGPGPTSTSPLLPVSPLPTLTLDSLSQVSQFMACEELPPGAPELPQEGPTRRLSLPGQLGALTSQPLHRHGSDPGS

Hepatocyte = assay: Intrinsic clearance in rat hepatocytes assessed per 10^6 cells; format: ADME, cell-based
[6] = Solubility of the compound

Structure (SMILES)	pEC50 (Hexokinase-4)	logD [1]	fold change (FC) (Liver microsomes)	other results
Cc1csc(NC(=O)CSc2ncnc3c2cnn3-c2ccccc2Cl)n1	5.60	3.8	5	
Cc1csc(NC(=O)CSc2ncnc3c2cnn3-c2ccccc2)n1	< 4.00			
O=C(CSc1ncnc2c1cnn2-c1ccccc1Cl)Nc1ccccc1	< 4.00	4.3	5	
Cc1ccc(NC(=O)CSc2ncnc3c2cnn3-c2ccccc2Cl)nc1	6.30	4.2	5	
O=C(CSc1ncnc2c1cnn2-c1ccccc1Cl)Nc1ncccn1	< 4.00	2.2	5	
Cn1ccc(NC(=O)CSc2ncnc3c2cnn3-c2ccccc2Cl)n1	4.80	2.5	5	
Cc1csc(NC(=O)COc2ncnc3c2cnn3-c2ccccc2Cl)n1	5.80	3.2		
COCC[C@H](Oc1ncnc2c1cnn2-c1ccccc1Cl)C(=O)Nc1ccc(C)cn1	7.30	3.9		clearance [2]: 34 mL/min/kg; bioavailability [3]: 53%; Vd [4]: 3.2 L/kg; pIC50 [5]: 4.66; CLint (Hepatocyte): 35 µL/min/1e6 cells; solubility [6]: 95 µM (≈ 43 µg/mL)
COCC[C@H](Oc1ncnc2c1cnn2-c1ccccc1C(F)(F)F)C(=O)Nc1ccc(C)cn1				CLint (Hepatocyte): 27 µL/min/1e6 cells
COCC[C@H](Oc1ncnc2c1cnn2-c1ccccc1OC)C(=O)Nc1ccc(C)cn1	6.90	3.5		pIC50 [5]: < 4.48; CLint (Hepatocyte): 132 µL/min/1e6 cells; solubility [6]: 86 µM (≈ 38.6 µg/mL)
CCCCC(Sc1ncnc2c1cnn2-c1ccccc1Cl)C(=O)Nc1nc(C)cs1 (racemic)	6.20	6.4	5	
COCCC(Sc1ncnc2c1cnn2-c1ccccc1Cl)C(=O)Nc1nc(C)cs1 (racemic)	6.10	4.8	5	
COCCOCCC(Sc1ncnc2c1cnn2-c1ccccc1Cl)C(=O)Nc1nc(C)cs1 (racemic)	5.50	4.7	5	
Cc1csc(NC(=O)C(Sc2ncnc3c2cnn3-c2ccccc2Cl)c2ccccc2)n1 (racemic)	< 4.00	5.6	5	
CCCCC(Oc1ncnc2c1cnn2-c1ccccc1Cl)C(=O)Nc1nc(C)cs1 (racemic)	6.90	5.7		
COCCC(Oc1ncnc2c1cnn2-c1ccccc1Cl)C(=O)Nc1ccc(C)cn1 (racemic)	7.00	4.1		
COCCC(Oc1ncnc2c1cnn2-c1ccccc1C)C(=O)Nc1ccc(C)cn1 (racemic)	6.50	4.2		
COCCC(Oc1ncnc2c1cnn2-c1ccccc1OC)C(=O)Nc1ccc(C)cn1 (racemic)	6.70	3.5		
